Source: US20180243421A1, “IMMUNOSTIMULATING AGENT” (AJINOMOTO CO., INC., priority 2015, published 2018)

Columns and labels:
[1] = tested on: anti-OVA-specific IgE antibody; conditions: mouse, in vivo
Procedure: The serum sample obtained in Example 1 was measured for an anti-OVA-specific IgE antibody. The measurement method of the anti-OVA-specific IgE antibody in Example 3 and Examples 6, 9 is as follows.
Measurement Method of anti-OVA-specific IgE Antibody
DS mouse IgE ELISA (OVA) kit manufactured by DS Pharma Biomedical Co., Ltd. was used. The protocol is briefly shown below.
The serum sample and a standard reagent for drawing an analytical curve are diluted with a buffer and, after stirring, left standing at room temperature for 10 min. The sample and the standard solution are added to a plate bound with an IgE capture antibody in advance and, after stirring, the mixture is left standing at room temperature for 60 min. The mixture is washed three times with wash, HRP-labeled OVA is added, and the mixture is left standing at room temperature for 30 min. The mixture is washed three times with wash, a substrate solution is added, and the mixture is left standing in dark at room temperature for 30 min. A reaction quenching liquid is added, the mixture is stirred, and the absorbance (OD Value=450 nm) is immediately measured.
This test was performed in the same manner as in Example 3 except that N^2-hexadecanoyl-L-arginine (SZ61), N-hexadecanoylagmatine (SZ62), N^2-hexadecanoyl-L-arginine methyl ester hydrochloride (SZ63), N^2-octadecanoyl-L-glutamine tert-butyl ester (SZ64), and N^2-octadecanoyl-L-glutamine (SZ65) were used.
This test was performed in the same manner as in Example 6 except that N-hexadecanoylagmatine (SZ62), N^2-octadecanoyl-L-glutamine tert-butyl ester (SZ64), N-docosanoyl-L-leucine methyl ester (SZ70), and N-docosanoyl-L-phenylalanine methyl ester (SZ71) were used and a positive control adjuvant Addavax™ (InvivoGen) administration group was formed.
The allergy inducing activity test was performed in the same manner as in Example 3 except that Addavax™, N-(2-octadecyleicosanoyl)-L-leucine methyl ester (SZ86), N-hexadecanoyl-L-leucinamide (SZ90), N^2-hexadecanoyl-N^1,N^1-diethyl-L-leucinamide (SZ92), N^2-hexadecanoyl-L-arginine hexyl ester hydrochloride (SZ99) and N^2-docosanoyl-N^1,N^1-diethyl-L-glutamic acid 1-amide (SZ106) were used.
The allergy inducing activity test was performed in the same manner as in Example 3 except that Addavax™, N-(2-octadecyleicosanoyl)-L-leucine methyl ester (SZ86), N-hexadecanoyl-L-leucinamide (SZ90), N^2-hexadecanoyl-N^1,N^1-diethyl-L-leucinamide (SZ92), N-hexadecanoyl-L-leucine hexyl ester (SZ97), N^2-docosanoyl-N^1,N^1-diethyl-L-glutamic acid 1-amide (SZ106) and N-docosanoylagmatine hydrochloride (SZ108) were used.
8-Week-old female BALB/c mice were divided into groups (N=6), and each group was primarily immunized by dorsal-subcutaneous administration of (1) ovalbumin (OVA) (5 μg) dissolved in saline as an antigen (OVA single administration group), (2) OVA (10 μg) and aluminum hydroxide salt dissolved in saline (Alum administration group), (3) OVA 10 μg and Addavax™ (mixed with saline at 1:1) dissolved in saline (Addavax™ administration group), (4) OVA 10 μg and CpG 5 μg dissolved in saline (CpG administration group), (5) OVA 10 μg and MPL 5 μg dissolved in saline (MPL administration group), (6) OVA (5 μg) and SZ62 (0.256 μmol) dissolved or dispersed in 5% αCD-added saline (SZ62 administration group), (7) OVA (5 μg), SZ62 (0.256 μmol) and CpG 5 μg dissolved or dispersed in 5% αCD-added saline (SZ62+CpG administration group), (8) OVA 10 μg, Addavax™ (mixed with saline at 1:1) and CpG 5 μg dissolved in saline (Addavax™+CpG administration group), (9) OVA (5 μg), SZ62 (0.256 μmol) and MPL 5 μg dissolved or dispersed in 5% αCD-added saline (SZ62+MPL administration group), (10) OVA (10 μg), aluminum hydroxide salt (Alum) and MPL 5 μg dissolved in saline (Alum+MPL administration group), each per mouse. One week later, the secondary immunization was carried out by dorsal-subcutaneous administration of solutions or dispersions similar to those of the above-mentioned (1) to (10) again.

[2] = tested on: anti-OVA-specific IgG1 subclass antibody; assay: Adjuvant activity: anti-OVA-specific IgG1 subclass antibody in serum after secondary immunization (Examples 1, 5, 7, 8; ELISA absorbance); type: in vivo, BALB/c mice
Procedure: Two weeks from the secondary immunization, the whole blood was extracted under anesthesia, and the obtained serum sample was measured for anti-OVA-specific IgG1 subclass antibody.
A method for measurement of the anti-OVA-specific IgG1 subclass antibody in Example 1, and the following Examples 5, 7 and 8 is as follows.
Measurement Method of anti-OVA-specific IgG1 Subclass Antibody
To a 96 well plate was added 5 μg/ml OVA at 100 μl/well, and the mixture was incubated at 4° C. overnight. After incubation, the mixture was washed three times with 200 μl of PBS-T (PBS+0.05%(v/v) Tween 20) per well, and blocked with 100 μl of 5% FCS/PBS solution per well at room temperature for 1 to 2 hr. Thereafter, the mixture was washed three times with PBS-T (200 μl/well), a diluted serum sample (100 μl/well) or the same amount of 5% FCS/PBS solution as a control was added, and the mixture was incubated at 37° C. for 1 hr. Thereafter, the mixture was washed five times with PBS-T (200 μl/well), a diluted biotinylated anti-mouse IgG1 antibody (100 μl/well) was added, and the mixture was incubated at 37° C. for 45 min. Thereafter, the mixture was washed five times with PBS-T (200 μl/well), a diluted anti-biotin-HRP antibody was added (100 μl/well), and the mixture was incubated at 37° C. for another 30 min. Thereafter, the mixture was washed five times with PBS-T (200 μl/well), TMB substrate solution was added (100 μl/well), and the mixture was incubated at room temperature for 10 to 15 min. Thereafter, a reaction quenching liquid (2N sulfuric acid solution) was added (50 μl/well) to discontinue a color developing reaction, and the absorbance (OD Value=450 nm) was measured by a microplate reader.

[3] = Example 5, same manner as Example 1
[4] = Example 8, same manner as Example 7
[5] = Example 7, same manner as Example 1, plus Addavax group

Row | Compound | adjuvant activity (IgG1) compared with Alum ([2]; Example 8) | anti-OVA-specific IgG1 subclass antibody production as compared to the OVA single administration group [2, 4] | adjuvant activity (IgG1) compared with Alum ([2]; Example 7) | anti-OVA-specific IgG1 subclass antibody production as compared to the OVA single administration group [2, 5] | other results
1 | CCCCCCCCCCCCCCCC(=O)N[C@@H](CCCNC(=N)N)C(=O)O [SZ61, N^2-hexadecanoyl-L-arginine] | – | – | – | – | allergy inducing activity as compared to aluminum hydroxide gel adjuvant [1]: lower allergy inducing activity; anti-OVA-specific IgE antibody production as compared to the OVA single administration group [1]: a significant increase in the anti-OVA-specific IgE antibody production was not observed
2 | CCCCCCCCCCCCCCCC(=O)N[C@@H](CCCNC(=N)N)C(=O)OC.Cl [SZ63, N^2-hexadecanoyl-L-arginine methyl ester hydrochloride] | equivalent to or not less than that of Alum | significantly increased | – | – | adjuvant activity (IgG1) compared with Alum ([2]; Example 5): equivalent to or not less than that of Alum; anti-OVA-specific IgG1 subclass antibody production as compared to the OVA single administration group [2, 3]: significantly increased; allergy inducing activity as compared to aluminum hydroxide gel adjuvant [1]: lower allergy inducing activity; anti-OVA-specific IgE antibody production as compared to the OVA single administration group [1]: a significant increase in the anti-OVA-specific IgE antibody production was not observed
3 | CCCCCCCCCCCCCCCCCC(=O)N[C@@H](CCC(N)=O)C(=O)OC(C)(C)C [SZ64, N^2-octadecanoyl-L-glutamine tert-butyl ester] | equivalent to or not less than that of Alum | significantly increased | – | – | adjuvant activity (IgG1) compared with Alum ([2]; Example 5): equivalent to or not less than that of Alum; anti-OVA-specific IgG1 subclass antibody production as compared to the OVA single administration group [2, 3]: significantly increased; allergy inducing activity as compared to aluminum hydroxide gel adjuvant [1]: lower allergy inducing activity; allergy inducing activity as compared to aluminum hydroxide gel adjuvant and Addavax [1]: lower allergy inducing activity; anti-OVA-specific IgE antibody production as compared to the OVA single administration group [1]: a significant increase in the anti-OVA-specific IgE antibody production was not observed
4 | CCCCCCCCCCCCCCCCCCCCCC(=O)NCC(=O)OC [SZ69, N-docosanoyl glycine methyl ester] | – | – | equivalent to or not less than that of Alum | significantly increased | –
5 | CCCCCCCCCCCCCCCCCCCCCC(=O)N[C@@H](CCC(=O)O)C(=O)OC [SZ72, N-docosanoyl-L-glutamic acid 1-methyl ester] | – | – | equivalent to or not less than that of Alum | significantly increased | –
6 | CCCCCCCCCCCCCCCCCCCCCC(=O)N[C@@H](CCCCN)C(=O)OC.O=C(O)C(F)(F)F [SZ73, N^2-docosanoyl-L-lysine methyl ester trifluoroacetic acid salt] | – | – | equivalent to or not less than that of Alum | significantly increased | –
7 | CCCCCCCCCCCCCCCCCCCCCC(=O)N[C@H](C(=O)OC)[C@@H](C)CC [SZ76, N-docosanoyl-L-isoleucine methyl ester] | – | – | equivalent to or not less than that of Alum | significantly increased | –
8 | CCCCCCCCCCCCCCCCCCCCCC(=O)N[C@H](C(=O)OC)C(C)C [SZ77, N-docosanoyl-L-valine methyl ester] | – | – | equivalent to or not less than that of Alum | significantly increased | –
9 | CCCCCCCCCCCCCCCC(=O)NCC(=O)OC [SZ78, N-hexadecanoyl glycine methyl ester] | equivalent to or not less than that of Alum | a significant difference was not found | – | – | anti-OVA-specific IgG1 subclass antibody production compared with Alum ([2]; Example 8): equivalent to that of Alum
10 | CCCCCCCCCCCCCCCC(=O)N[C@@H](CC(C)C)C(=O)OC [SZ79, N-hexadecanoyl-L-leucine methyl ester] | equivalent to or not less than that of Alum | a significant difference was not found | – | – | anti-OVA-specific IgG1 subclass antibody production compared with Alum ([2]; Example 8): equivalent to that of Alum
11 | CCCCCCCCCCCCCCCC(=O)N[C@@H](Cc1ccccc1)C(=O)OC [SZ80, N-hexadecanoyl-L-phenylalanine methyl ester] | equivalent to or not less than that of Alum | significantly increased | – | – | –
12 | CCCCCCCCCCCCCCCC(=O)N[C@@H](CCCCN)C(=O)OC.O=C(O)C(F)(F)F [SZ81, N^2-hexadecanoyl-L-lysine methyl ester trifluoroacetic acid salt] | equivalent to or not less than that of Alum | a significant difference was not found | – | – | anti-OVA-specific IgG1 subclass antibody production compared with Alum ([2]; Example 8): equivalent to that of Alum
13 | CCCCCCCCCCCCCCCC(=O)N[C@@H](CCC(=O)O)C(=O)OC [SZ82, N-hexadecanoyl-L-glutamic acid 1-methyl ester] | equivalent to or not less than that of Alum | significantly increased | – | – | –
14 | Alum [reference compound] | – | – | – | – | anti-OVA-specific IgE antibody production as compared to the OVA single administration group [1]: significantly increased
